Molecules are shown by their SMILES. Values joined by “and” are separate entries in the source; they are usually repeats but may differ in a detail not shown here. Equal values may be shown once. “Also recorded” adds a separate entry of the source. Some results are limits rather than exact numbers.

A word on the IC50: it is the concentration at which inhibition is half-maximal.

Series [1] deals with 15-LO. In words: 15-HETE formation in intact PMNL. Particulars: intact PMNL, 20 µM AA, 2.5 µM A23187, (95% CI), n = 3–6; for IC50: read-out: IC50 for inhibition of 15-HETE formation, PMNL.
For series [2], the system named is U2OS cells. Conditions: human, 10 µM.
Series [3] deals with T1, 12-LO (Homo sapiens, UniProt P18054).
T1 sequence (P18054 1-663): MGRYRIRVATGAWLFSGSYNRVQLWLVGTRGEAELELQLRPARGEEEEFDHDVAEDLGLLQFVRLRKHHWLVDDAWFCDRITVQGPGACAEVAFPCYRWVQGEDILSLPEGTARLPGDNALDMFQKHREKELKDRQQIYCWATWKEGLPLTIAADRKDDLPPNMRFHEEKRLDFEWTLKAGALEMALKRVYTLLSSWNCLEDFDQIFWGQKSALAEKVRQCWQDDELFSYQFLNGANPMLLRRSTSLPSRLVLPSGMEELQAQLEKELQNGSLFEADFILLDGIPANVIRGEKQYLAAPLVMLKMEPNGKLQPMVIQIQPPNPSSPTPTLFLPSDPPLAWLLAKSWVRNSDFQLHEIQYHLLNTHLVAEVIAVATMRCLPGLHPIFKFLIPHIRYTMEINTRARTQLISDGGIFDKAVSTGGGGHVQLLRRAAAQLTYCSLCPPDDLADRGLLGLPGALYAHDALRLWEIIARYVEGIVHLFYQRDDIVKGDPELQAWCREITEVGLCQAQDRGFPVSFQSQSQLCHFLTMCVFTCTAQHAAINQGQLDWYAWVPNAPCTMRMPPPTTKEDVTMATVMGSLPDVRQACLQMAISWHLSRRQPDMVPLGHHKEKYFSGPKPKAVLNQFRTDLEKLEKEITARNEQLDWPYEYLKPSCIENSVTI
In words: 12-HETE formation in platelets. Particulars: 20 µM AA, 2.5 µM A23187, n = 3–6.

Series [4] concerns the target T2, 5-LO (Homo sapiens, UniProt P09917).
T2 sequence (P09917 1-674): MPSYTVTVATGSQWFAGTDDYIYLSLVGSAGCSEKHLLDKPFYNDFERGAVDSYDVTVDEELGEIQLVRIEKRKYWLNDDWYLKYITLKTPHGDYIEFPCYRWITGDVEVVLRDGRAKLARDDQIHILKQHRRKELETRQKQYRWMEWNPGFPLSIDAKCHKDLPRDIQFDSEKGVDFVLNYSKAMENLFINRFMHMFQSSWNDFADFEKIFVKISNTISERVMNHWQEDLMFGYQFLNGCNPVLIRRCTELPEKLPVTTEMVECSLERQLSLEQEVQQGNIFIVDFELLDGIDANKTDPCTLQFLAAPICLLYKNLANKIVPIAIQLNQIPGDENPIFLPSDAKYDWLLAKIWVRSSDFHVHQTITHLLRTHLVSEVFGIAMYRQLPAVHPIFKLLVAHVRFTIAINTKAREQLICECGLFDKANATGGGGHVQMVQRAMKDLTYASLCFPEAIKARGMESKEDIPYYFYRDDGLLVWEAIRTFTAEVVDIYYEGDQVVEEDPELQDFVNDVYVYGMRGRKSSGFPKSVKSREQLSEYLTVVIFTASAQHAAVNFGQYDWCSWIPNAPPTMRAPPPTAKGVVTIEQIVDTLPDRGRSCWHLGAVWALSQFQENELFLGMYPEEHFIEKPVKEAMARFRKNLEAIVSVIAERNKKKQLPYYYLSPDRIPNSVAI
In words: 5-LO product formation in intact PMNL.

Series [5] has as its system Her2/ErbB2. The arrangement: method as in PMID 7892601. Conditions: original target of AG879; cited from earlier work.
Series [6] deals with T3, r5-LO_WT (Homo sapiens, UniProt P09917).
T3 construct: made in house; host or cells: E. coli BL21 (DE3)
T3 sequence (P09917 1-674): T2 sequence (P09917 1-674)
In words: Covalent inhibitor binding by mass spectrometry, r5-LO_WT. Particulars: 100 µM compound; for inhibitor adducts to r5-LO_WT detected by mass spectrometry: 20 µM protein, at least 1 h RT.

Series [7] addresses T4, r5-LO_4C (Homo sapiens, UniProt P09917, C160S/C301S/C417S/C419S).
T4 construct: made in house; host or cells: E. coli BL21 (DE3)
T4 sequence (P09917 2-674 C160S/C301S/C417S/C419S limits assumed): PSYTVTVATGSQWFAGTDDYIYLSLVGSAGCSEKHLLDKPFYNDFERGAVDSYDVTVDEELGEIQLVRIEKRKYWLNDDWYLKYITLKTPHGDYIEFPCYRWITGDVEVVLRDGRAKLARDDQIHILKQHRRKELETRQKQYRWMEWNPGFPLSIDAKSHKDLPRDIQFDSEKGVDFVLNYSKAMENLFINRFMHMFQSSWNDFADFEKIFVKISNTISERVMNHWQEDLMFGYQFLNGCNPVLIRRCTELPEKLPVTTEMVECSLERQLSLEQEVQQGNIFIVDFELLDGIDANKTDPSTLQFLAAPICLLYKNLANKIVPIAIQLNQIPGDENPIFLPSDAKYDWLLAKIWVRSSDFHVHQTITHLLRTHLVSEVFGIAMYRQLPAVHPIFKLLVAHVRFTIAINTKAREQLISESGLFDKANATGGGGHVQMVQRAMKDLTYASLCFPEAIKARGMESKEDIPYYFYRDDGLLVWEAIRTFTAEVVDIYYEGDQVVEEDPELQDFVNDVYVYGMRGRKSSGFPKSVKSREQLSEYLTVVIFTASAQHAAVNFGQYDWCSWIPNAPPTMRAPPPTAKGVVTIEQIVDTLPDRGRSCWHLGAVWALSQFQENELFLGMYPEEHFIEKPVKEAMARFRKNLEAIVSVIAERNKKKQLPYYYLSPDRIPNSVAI
In words: Covalent inhibitor binding by mass spectrometry, r5-LO_4C. Conditions: 20 µM protein, 100 µM compound, at least 1 h RT. As for the experimental part:
r5-LO_WT or r5-LO_4C protein was diluted to 20 µM in gel filtration buffer; 100 µM of compound was added and incubated for a minimum time of 1 h at RT before 10 µL was injected onto a 1260 Infinity HPLC (Agilent, Santa Clara, USA) using a C3 column with a flow rate of 0.4 mL/min as published before. The HPLC was coupled with a 6230 electrospray ionization TOF LC/MS detector (Agilent, Santa Clara, CA, USA). Data were acquired using the Agilent MassHunter Acquisition software and processed with the Agilent Mass Hunter BioConfirm software (B.08.00). Peak intensities were calculated and normalized to the highest count of each data set with GraphPad Prism version 7.05 (GraphPad Software, Boston, MA, USA).
Fig. 3 Mass spectra of r5-LO_WT or r5-LO_4C incubated with inhibitors (blue or red line). 20 µM r5-LO_WT (left) or r5-LO_4C (right) was incubated with 100 µM degrasyn (A), AG556 (B), tyrphostin A9 (C), AG879 (D), or CAPE (E) at RT for at least 1 h before analysis. Measurement was performed using an Agilent 1260 Infinity HPLC with an Agilent 6230 TOF LC/MS detector. Obtained data were processed using Mass Hunter BioConfirm (B.08.00), and resulted counts were normalized to the highest peak of the spectrum

The target of series [8] is T2, 5-LO. In words: 5-LO activity in PMNL homogenates. Format: biochemical. The arrangement: endogenous in cells; host or cells: human PMNL (polymorphonuclear leukocytes). Conditions: sonicated PMNL, 20 µM AA. As for the experimental part:
Samples were kept on ice, and 1 mM ATP or 1 mM ATP/1 mM GSH was added. The inhibitors were preincubated with the cell homogenate on ice for 15 min before heating the samples at 37 °C for 30 s. […] Solid phase extraction and UPLC analysis were performed as described above.

The subject of series [9] is U2OS cells. Nature of the series: Multiplex live-cell high-content assay. Conditions: 10 µM, 48 h.

Regarding `CC(C)(C)c1cc(/C=C(\C#N)C(N)=S)cc(C(C)(C)C)c1O` [AG879], the half-inhibitory concentration (IC50) in series [1] is above 25000 nM; in series [4] (IC50 for inhibition of 5-LO product formation, PMNL, intact PMNL, 20 µM AA, 2.5 µM A23187, (95% CI), n = 3–6) it was 400 nM and 420 nM; in series [5], 1000 nM. Also, the “normalized healthy cell count” value in series [2] is “around 75%”. For the same molecule, in series [3], the “IC50 for inhibition of 12-HETE formation, platelets” value is “no inhibition”. Besides, the “inhibitor adducts to r5-LO_WT detected by mass spectrometry” value in [6] is reported as “did not detect mass shifts”.

Turning to `CCC[C@H](NC(=O)/C(C#N)=C/c1cccc(Br)n1)c1ccccc1` [Degrasyn], the “IC50 for inhibition of 15-HETE formation, PMNL” value in series [1] was “moderate inhibition”. In addition, the IC50 was 7900 nM in series [1]; 4200 nM in [8] (with 1 mM GSH, read-out: IC50 5-LO, PMNL homogenates + GSH); 890 nM in series [8] (without GSH, read-out: IC50 5-LO, PMNL homogenates); 620 nM in series [4]. For the same molecule, the “inhibitor adducts to r5-LO_4C detected by mass spectrometry” value in [7] was “only one adduct”. Also, the “normalized healthy cell count” value in series [2] is reported as “below 50%”. The “increase of mitochondrial mass” value in series [2] (48 h) is given as “more than 50%”. Moreover, the “IC50 for inhibition of 12-HETE formation, platelets” value in series [3] is given as “no inhibition”. Also, the “phenotypic properties (tubulin, mitochondrial mass, membrane permeability, cell morphology)” value in series [9] is “additional effects on microtubules and on membrane integrity”. Also, the “inhibitor adducts to r5-LO_WT detected by mass spectrometry” value in series [6] is listed as “covalently bound to up to four cysteines; also recorded: four peaks”. Also, the “mass shift of inhibitor adduct” value in series [6] (20 µM r5-LO_WT) came to 384 Da.

The record behind these values is PMC11582101, “Unlocking the potential: unveiling tyrphostins with Michael-reactive cyanoacrylate motif as promising inhibitors of human 5-lipoxygenase” (Pflugers Archiv, 2024).
